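Dose response: 5 concentrations. Exposure: 48 h. Format: 96-well plates. Endpoint: linear interpolation; highest concentration if not reached. GI50: concentration for 50% inhibition of growth.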 Calls of active or inactive are those of the source. Rule as the data show it: active = GI50 up to about 1.1 µM and inactive = higher.
Assays:
Experiment in all cases: DTP human tumour cell line panel, 48 h
[1] = test system: HCT-116
[2] = test system: A549
[3] = test system: SW-620
[4] = test system: SK-MEL-28
[5] = test system: UO-31
[6] = test system: NCI/ADR-RES
[7] = test system: OVCAR-5
[8] = test system: OVCAR-8
[9] = test system: SF-295
[10] = test system: MDA-MB-231
[11] = test system: NCI-H460
[12] = test system: HOP-92
[13] = test system: M14
[14] = test system: KM12
[15] = test system: MDA-MB-435
[16] = test system: LOX IMVI
[17] = test system: DU-145
[18] = test system: SF-268
[19] = test system: T47D
[20] = test system: UACC-62

Row | SMILES | GI50 [1] | GI50 [2] | GI50 [3] | GI50 [4] | GI50 [5] | GI50 [6] | GI50 [7] | GI50 [8] | GI50 [9] | GI50 [10] | GI50 [11] | GI50 [12] | GI50 [13] | GI50 [14] | GI50 [15] | GI50 [16] | GI50 [17] | GI50 [18] | GI50 [19] | GI50 [20]
1 | C=CC(=O)N1C/C(=C\c2ccc(F)cc2)C(=O)/C(=C/c2ccc(F)cc2)C1 | 0.0557 µM (active) | 0.979 µM (active) | 0.162 µM (active) | 0.634 µM (active) | 0.849 µM (active) | 0.365 µM (active) | 0.622 µM (active) | 0.28 µM (active) | 0.44 µM (active) | 0.461 µM (active) | 0.593 µM (active) | 3.03 µM (inactive) | 0.328 µM (active) | 0.193 µM (active) | 0.299 µM (active) | 0.0925 µM (active) | 1.67 µM (inactive) | 0.206 µM (active) | 4.57 µM (inactive) | 0.142 µM (active)
2 | Oc1ccc(SCc2ccc(NCc3ccccc3)cc2)cc1 | 46.6 µM (inactive) | 22.1 µM (inactive) | 36.4 µM (inactive) | 63.8 µM (inactive) | 14.3 µM (inactive) | 30.3 µM (inactive) | 27.2 µM (inactive) | 37.8 µM (inactive) | 22.3 µM (inactive) | 39.9 µM (inactive) | 31 µM (inactive) | 43.4 µM (inactive) | 19.4 µM (inactive) | 29.2 µM (inactive) | 18.2 µM (inactive) | 19.9 µM (inactive) | 32 µM (inactive) | 39.4 µM (inactive) | 14.7 µM (inactive) | 23.4 µM (inactive)
3 | O=C1C=CC=C/C1=C1\N=C(c2ccccc2OCC(=O)c2ccc(Br)cc2)SS1 | 78.9 µM (inactive) | > 100 µM (inactive) | > 100 µM (inactive) | > 100 µM (inactive) | > 100 µM (inactive) | > 100 µM (inactive) | > 100 µM (inactive) | 93.5 µM (inactive) | 28.2 µM (inactive) | > 10 µM (inactive) | > 100 µM (inactive) | 63.8 µM (inactive) | 73.3 µM (inactive) | > 100 µM (inactive) | > 100 µM (inactive) | > 100 µM (inactive) | > 100 µM (inactive) | 32 µM (inactive) | > 100 µM (inactive) | 23.1 µM (inactive)
4 | CCC(=O)Oc1c2ccsc2c(OC(=O)CC)c2ccsc12 | 0.332 µM (active) | 2.05 µM (inactive) | 0.471 µM (active) | 0.178 µM (active) | 0.51 µM (active) | 0.279 µM (active) | 1.88 µM (inactive) | 0.366 µM (active) | 0.254 µM (active) | 0.232 µM (active) | 1.89 µM (inactive) | 1.42 µM (inactive) | 0.161 µM (active) | 1.8 µM (inactive) | 0.0604 µM (active) | 0.0661 µM (active) | 0.262 µM (active) | 0.518 µM (active) | 1.56 µM (inactive) | 0.217 µM (active)
5 | Cc1nc2ccccc2n1Cc1ccc(NC(=S)NC2CCCCC2)cc1 | 34.9 µM (inactive) | 17.4 µM (inactive) | 41.3 µM (inactive) | 29.7 µM (inactive) | 41 µM (inactive) | 35.6 µM (inactive) | > 100 µM (inactive) | 30.9 µM (inactive) | 10.1 µM (inactive) | 38.1 µM (inactive) | 35.5 µM (inactive) | 41.3 µM (inactive) | 30.1 µM (inactive) | 24.3 µM (inactive) | 6.84 µM (inactive) | 10.6 µM (inactive) | 36.8 µM (inactive) | 17.2 µM (inactive) | 5.74 µM (inactive) | 6.3 µM (inactive)
6 | COC(=O)c1c(CC(Cc2ccc3c(c2)CCCC3)C(=O)O)ccc2c1CCCC2 (stereo not given) | 17.9 µM (inactive) | 34.1 µM (inactive) | 40.7 µM (inactive) | 34.7 µM (inactive) | 25.8 µM (inactive) | 17.9 µM (inactive) | 43.8 µM (inactive) | 36.2 µM (inactive) | 32.6 µM (inactive) | 27.9 µM (inactive) | 21.9 µM (inactive) | 25.2 µM (inactive) | 42.9 µM (inactive) | 27.4 µM (inactive) | 34.2 µM (inactive) | 17.5 µM (inactive) | 39.6 µM (inactive) | 37.1 µM (inactive) | 33.4 µM (inactive) | 22.4 µM (inactive)
7 | NC1=NCCN1CC(=O)O [CYCLOCREATINE] | > 1000 µM (inactive) | > 1000 µM (inactive) | > 1000 µM (inactive) | > 1000 µM (inactive) | > 1000 µM (inactive) | > 1000 µM (inactive) | > 1000 µM (inactive) | > 1000 µM (inactive) | > 10000 µM (inactive) | > 1000 µM (inactive) | > 1000 µM (inactive) | > 1000 µM (inactive) | > 1000 µM (inactive) | > 10000 µM (inactive) | > 1000 µM (inactive) | > 1000 µM (inactive) | > 1000 µM (inactive) | 4990 µM (inactive) | > 1000 µM (inactive) | > 1000 µM (inactive)
8 | O=C1C(/N=N/c2ccc(-c3nc4ccccc4[nH]3)cc2)NC(=S)N1c1ccccc1 (stereo not given) | 36.8 µM (inactive) | 53.7 µM (inactive) | 28.1 µM (inactive) | > 100 µM (inactive) | > 100 µM (inactive) | > 100 µM (inactive) | > 100 µM (inactive) | 47.2 µM (inactive) | 91.6 µM (inactive) | > 100 µM (inactive) | 56.9 µM (inactive) | > 100 µM (inactive) | > 100 µM (inactive) | 18 µM (inactive) | 67.3 µM (inactive) | 19.8 µM (inactive) | 28.6 µM (inactive) | > 100 µM (inactive) | 18.8 µM (inactive) | > 100 µM (inactive)
9 | CCOn1cc(C[C@@]2(O)C(=O)OC3[C@@H](O)CO[C@@]32O)c2ccccc21 (stereo not given in full) | > 100 µM (inactive) | > 100 µM (inactive) | > 100 µM (inactive) | > 100 µM (inactive) | > 100 µM (inactive) | > 100 µM (inactive) | > 100 µM (inactive) | > 100 µM (inactive) | > 100 µM (inactive) | > 100 µM (inactive) | > 100 µM (inactive) | > 100 µM (inactive) | > 100 µM (inactive) | > 100 µM (inactive) | > 100 µM (inactive) | > 100 µM (inactive) | > 100 µM (inactive) | > 100 µM (inactive) | > 100 µM (inactive) | 46.7 µM (inactive)
10 | Nc1ccn([C@H]2CO[C@@H](CO)O2)c(=O)n1 | 1.39 µM (inactive) | 1.35 µM (inactive) | > 56.6 µM (inactive) | 15.7 µM (inactive) | 1.57 µM (inactive) | 3.88 µM (inactive) | 27.9 µM (inactive) | 1.51 µM (inactive) | 1.2 µM (inactive) | > 55.7 µM (inactive) | 1.58 µM (inactive) | 1.82 µM (inactive) | 0.83 µM (active) | > 100 µM (inactive) | 20.8 µM (inactive) | 0.804 µM (active) | 0.0658 µM (active) | 11.4 µM (inactive) | > 35.6 µM (inactive) | 2.37 µM (inactive)
11 | NS(=O)(=O)OCCCCCCCOS(N)(=O)=O | 309 µM (inactive) | 109 µM (inactive) | 334 µM (inactive) | 535 µM (inactive) | 265 µM (inactive) | 273 µM (inactive) | 408 µM (inactive) | 221 µM (inactive) | > 92.9 µM (inactive) | 445 µM (inactive) | 23 µM (inactive) | 215 µM (inactive) | 187 µM (inactive) | 379 µM (inactive) | 410 µM (inactive) | 161 µM (inactive) | 124 µM (inactive) | 130 µM (inactive) | 246 µM (inactive) | 61.4 µM (inactive)

From ChEMBL document CHEMBL1201862, “PubChem BioAssay data set” (2004)
